Results from ChEMBL document CHEMBL5241093, “Recent advances in the design and discovery of synthetic tyrosinase inhibitors” (Eur J Med Chem, 2021).

Key:
[1] = biological target: T1, Tyrosinase (Agaricus bisporus, UniProt O42713); assay: Inhibition of mushroom tyrosinase using L-DOPA as substrate incubated for 10 mins
T1 sequence (O42713 whole entry): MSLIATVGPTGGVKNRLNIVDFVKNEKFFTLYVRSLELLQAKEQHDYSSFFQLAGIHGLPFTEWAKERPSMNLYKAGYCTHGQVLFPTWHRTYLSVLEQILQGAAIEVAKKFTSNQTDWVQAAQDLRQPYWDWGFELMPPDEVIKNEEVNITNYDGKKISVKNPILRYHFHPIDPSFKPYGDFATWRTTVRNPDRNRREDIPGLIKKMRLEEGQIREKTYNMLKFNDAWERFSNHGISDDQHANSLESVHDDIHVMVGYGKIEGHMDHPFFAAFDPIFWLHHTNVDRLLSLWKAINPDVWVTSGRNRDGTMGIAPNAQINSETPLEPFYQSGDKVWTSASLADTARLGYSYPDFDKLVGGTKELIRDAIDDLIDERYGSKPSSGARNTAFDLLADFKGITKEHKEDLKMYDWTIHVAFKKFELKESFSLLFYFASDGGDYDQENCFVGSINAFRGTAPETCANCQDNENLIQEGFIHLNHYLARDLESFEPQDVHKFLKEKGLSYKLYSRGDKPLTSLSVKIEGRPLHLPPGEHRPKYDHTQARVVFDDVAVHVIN

[2] = biological target: T1, Tyrosinase; assay: Inhibition of mushroom tyrosinase using L-tyrosine as a substrate incubated for 10 mins
[3] = biological target: T1, Tyrosinase; assay: Inhibition of mushroom tyrosinase using L-tyrosine as substrate preincubated for 15 mins followed by substrate addition measured after 30 mins by plate reader analysis
[4] = biological target: T1, Tyrosinase; assay: Inhibition of mushroom tyrosinase using L-DOPA as substrate incubated for 10 mins by spectrophotometric assay
[5] = biological target: T1, Tyrosinase; assay: Inhibition of mushroom tyrosinase using L-tyrosine as substrate assessed as […] activity incubated for 20 mins by microplate reader analysis
[6] = biological target: T1, Tyrosinase; assay: Inhibition of mushroom tyrosinase using L-DOPA as substrate assessed as monophenolase activity incubated for 20 mins by microplate reader analysis
[7] = Antioxidant activity assessed as DPPH radical scavenging activity incubated for 30 mins under dark condition; type: functional
[8] = biological target: T1, Tyrosinase; assay: Inhibition of mushroom tyrosinase using L-dopa as substrate incubated for 30 mins by spectrophotometric analysis
[9] = biological target: T1, Tyrosinase; assay: Inhibition of mushroom tyrosinase using L-DOPA as substrate by HTS analysis
[10] = biological target: T1, Tyrosinase; assay: Inhibition of mushroom tyrosinase using L-DOPA as substrate incubated for 20 mins by microplate reader analysis
[11] = biological target: T1, Tyrosinase; assay: Inhibition of mushroom tyrosinase using L-dopa as substrate assessed as diphenolase activity incubated for 30 mins by spectrophotometric method
[12] = biological target: T1, Tyrosinase; assay: Inhibition of mushroom tyrosinase using L-dopa as substrate assessed as monophenolase activity incubated for 30 mins by spectrophotometric method
[13] = biological target: T2, Tyrosinase (Homo sapiens, UniProt P14679); assay: Inhibition of human his tagged tyrosinase expressed in HEK293 cells using L-DOPA as substrate incubated for 10 mins by microtitre plate reader analysis; type: cell-based
T2 sequence (P14679 whole entry): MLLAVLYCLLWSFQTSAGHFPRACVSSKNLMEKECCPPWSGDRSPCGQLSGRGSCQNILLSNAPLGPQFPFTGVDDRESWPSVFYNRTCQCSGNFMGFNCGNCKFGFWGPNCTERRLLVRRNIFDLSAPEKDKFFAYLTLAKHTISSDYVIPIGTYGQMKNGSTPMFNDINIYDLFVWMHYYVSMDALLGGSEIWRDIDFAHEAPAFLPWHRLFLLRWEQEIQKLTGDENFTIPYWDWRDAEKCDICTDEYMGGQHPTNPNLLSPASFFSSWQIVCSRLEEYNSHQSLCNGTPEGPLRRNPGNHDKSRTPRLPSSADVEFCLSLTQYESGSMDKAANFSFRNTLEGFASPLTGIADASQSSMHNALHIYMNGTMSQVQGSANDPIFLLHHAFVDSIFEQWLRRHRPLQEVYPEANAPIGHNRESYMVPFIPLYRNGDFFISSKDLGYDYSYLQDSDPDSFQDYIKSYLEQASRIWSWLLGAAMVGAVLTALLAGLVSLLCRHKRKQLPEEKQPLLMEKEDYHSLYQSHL

[14] = biological target: T1, Tyrosinase; assay: Inhibition of mushroom tyrosinase using L-dopa as substrate incubated for 30 mins by microplate reader analysis
[15] = biological target: T1, Tyrosinase; assay: Inhibition of mushroom tyrosinase using L-DOPA as substrate preincubated for 10 mins followed by substrate addition measured after 20 mins
[16] = biological target: T1, Tyrosinase; assay: Inhibition of mushroom tyrosinase using L-dopa as substrate assessed as inhibition constant incubated for 30 mins by spectrophotometric analysis
[17] = biological target: T1, Tyrosinase; assay: Inhibition of mushroom tyrosinase using L-DOPA as substrate incubated for 20 mins
[18] = biological target: T1, Tyrosinase; assay: Inhibition of mushroom tyrosinase using L-DOPA as substrate preincubated with compound for 15 mins by microplate reader analysis
[19] = biological target: T1, Tyrosinase; assay: Inhibition of mushroom tyrosinase using L-DOPA as substrate assessed as inhibition constant preincubated with compound for 15 mins by microplate reader analysis
[20] = biological target: T1, Tyrosinase; assay: Inhibition of mushroom tyrosinase using L-DOPA as substrate incubated for 5 mins
[21] = biological target: T1, Tyrosinase; assay: Inhibition of mushroom tyrosinase using L-dopa as substrate assessed as diphenolase activity preincubated for 20 mins followed by substrate addition measured after 10 mins by plate reader analysis
[22] = biological target: T1, Tyrosinase; assay: Inhibition of mushroom tyrosinase using L-tyrosine as substrate assessed as monophenolase activity preincubated for 20 mins followed by substrate addition measured after 10 mins by plate reader analysis
[23] = system: B16; assay: Anti-melanoma activity against mouse B16 cells assessed as inhibition of tyrosinase activity incubated for 48 hrs by spectrophotometer analysis relative to control; type: functional
[24] = biological target: T1, Tyrosinase; assay: Inhibition of mushroom tyrosinase using L-DOPA as substrate preincubated for 10 mins followed by substrate addition measured after 20 mins by microtitre plate analysis
[25] = biological target: T1, Tyrosinase; assay: Inhibition of mushroom tyrosinase using L-dopa as substrate by spectrophotometric analysis
[26] = biological target: T1, Tyrosinase; assay: Inhibition of mushroom tyrosinase incubated for 20 mins by spectrophotometric assay
[27] = biological target: T1, Tyrosinase; assay: Inhibition of mushroom tyrosinase using L-DOPA as substrate preincubated for 10 mins followed by substrate addition measured after 5 mins
[28] = biological target: T1, Tyrosinase; assay: Inhibition of mushroom tyrosinase using L-DOPA as substrate preincubated for 10 mins followed by substrate addition measured after 20 mins by microtitre plate reader analysis
[29] = biological target: T1, Tyrosinase; assay: Inhibition of mushroom tyrosinase using L-dopa as substrate assessed as monophenolase activity by microplate reader analysis
[30] = biological target: T1, Tyrosinase; assay: Inhibition of mushroom tyrosinase using L-tyrosine as substrate assessed as […] activity by microplate reader analysis
[31] = biological target: T3, Mushroom tyrosinase (Agaricus bisporus, UniProt O42713+Q00024+C7FF04+C7FF05); assay: Inhibition of mushroom diphenolase
[32] = biological target: T3, Mushroom tyrosinase; assay: Inhibition of mushroom monophenolase
[33] = biological target: T1, Tyrosinase; assay: Inhibition of mushroom tyrosinase using L-DOPA as substrate incubated for 30 mins
[34] = biological target: T1, Tyrosinase; assay: Inhibition of mushroom tyrosinase using L-DOPA as a substrate assessed as inhibition constant incubated for 5 mins by microplate reader analysis
[35] = biological target: T1, Tyrosinase; assay: Inhibition of mushroom tyrosinase using L-DOPA as substrate assessed as diphenolase activity
[36] = biological target: T1, Tyrosinase; assay: Inhibition of mushroom tyrosinase using L-tyrosine as substrate assessed as monophenolase activity
[37] = Antioxidant activity assessed as DPPH radical scavenging activity incubated for 30 mins under dark condition by microplate reader analysis; type: functional
[38] = system: B16-F10; assay: Inhibition of melanin production in mouse B16-F10 cells assessed reduction in melanin level measured after 72 hrs by ELISA assay relative to control; type: functional
[39] = biological target: T1, Tyrosinase
Description: Inhibition of mushroom tyrosinase using L-DOPA as substrate assessed as inhibition constant preincubated for 15 mins followed by substrate addition measured after 2 mins by microtitre plate reader analysis

COc1cc(/C=C/C(=O)c2cc(OC)c(OC)c(-c3cc(C(=O)/C=C/c4ccc(O)c(OC)c4)cc(OC)c3OC)c2)ccc1O
IC50 [1]: 0.022 µM

O=C(O)CSc1nnc(NC(=S)Nc2cccc(C(F)(F)F)c2)s1
IC50 [2]: 15 µM

CCCCOC(=O)/C=C/c1ccc(O)cc1
IC50 [3]: 69 µM

CCOC(OCC)c1ccc(/C=C2\CCC/C(=C\c3ccc(C(OCC)OCC)cc3)C2=O)cc1
IC50 [4]: 10.1 µM

O=C(/C=C/c1ccc(O)cc1O)c1cccs1
IC50 [5]: 0.013 µM | IC50 [6]: 0.93 µM

CCOC(=O)C1=C(N)Oc2c(ccc3ccccc23)C1c1ccc(N(C)C)cc1 (stereo not drawn)
EC50 [7]: 0.94 mM/L

COc1cc([N+](=O)[O-])ccc1/C=C/C(=N\O)c1cc2ccccc2cc1O
IC50 [8]: 4.77 µM

CC(C)C(=O)Nc1nc(-c2ccc(O)cc2O)cs1
IC50 [9]: 108 µM

Oc1ccc(/C=N\n2c(Cc3ccccc3F)n[nH]c2=S)cc1
IC50 [10]: 6.23 µM

CCOC(OCC)c1ccc(/C=C/C(=O)C2CCc3ccccc3C2=O)cc1 (stereo not drawn)
IC50 [4]: 5.84 µM

COc1cc(CC2C(=O)Nc3ccccc32)ccc1O (stereo not drawn)
IC50 [11]: 59.7 µM | IC50 [12]: 63.4 µM

Nc1nc(-c2ccc(O)cc2O)cs1
EC50 [13]: 245 µM

O=C1/C(=C/c2ccc(O)c(Br)c2)CSc2ccccc21
IC50 [14]: 4.1 µM

Cc1ccc(C(C)C)cc1NC(=O)COC(=O)c1ccc(O)cc1O
IC50 [15]: 11 µM

O=C1/C(=C/c2ccc(O)cc2O)Cc2ccccc21
Ki [16]: 2.4 µM | IC50 [8]: 1.39 µM

COc1cc(/C=N/NC(=O)c2ccc(O)c(OC)c2)ccc1O
IC50 [17]: 10 µM

O=P(O)(c1ccccc1)C(NCc1ccccc1)c1ccccn1 (stereo not drawn)
IC50 [18]: 310 µM | Ki [19]: 76 µM

OC[C@H]1O[C@H](Oc2cc(O)cc(CCc3ccc(O)cc3O)c2)[C@H](O)[C@@H](O)[C@@H]1O
IC50 [20]: 2.63 µM

N/C(S)=N/N=C/c1ccc([N+](=O)[O-])cc1
IC50 [21]: 1.74 µM | IC50 [22]: 0.05 µM

OC[C@H]1O[C@@H](Oc2ccc(O)cc2)[C@H](O)[C@@H](O)[C@@H]1O [ARBUTIN]
inhibition (INH) [23]: 55.4%

Cc1ccc(C(C)C)cc1NC(=O)COC(=O)/C=C/c1ccc(O)cc1O
IC50 [24]: 0.15 µM

O=C1CSC(c2ccccc2O)N1c1ccc(-c2ccc(N3C(=O)CSC3c3ccccc3O)cc2)cc1 (stereo not drawn)
IC50 [25]: 0.61 µM

CCOC(OCC)c1ccc(/C=C2\Cc3ccccc3C2=O)cc1
IC50 [4]: 6.83 µM

O=C(/C=C/c1cccc(Cl)c1)NCCN1CCOCC1
IC50 [26]: 15.2 µM

Nn1c(S)nnc1N/N=C\c1ccccc1O
IC50 [10]: 1.52 µM

CC(=O)Nc1ccc(/N=N/c2c(N)nc(N)nc2Cl)cc1
IC50 [27]: 24.4 µM

O=C1OC(c2ccccc2Br)=NC(=S)C1c1nn[nH]n1 (stereo not drawn)
IC50 [28]: < 0.1 µM

COc1cc(/C=C/C(=O)c2ccc(OC)c(OC)c2)ccc1O
IC50 [1]: 0.038 µM

OC[C@H]1O[C@H](Oc2cc(CCc3ccc(O)cc3O)cc(O[C@H]3O[C@H](CO)[C@@H](O)[C@H](O)[C@H]3O)c2)[C@H](O)[C@@H](O)[C@@H]1O
IC50 [20]: 12.8 µM

O=C(O)/C=C/c1ccc(O)cc1 [COUMARIC ACID]
IC50 [3]: 296 µM

OCC1CSC(c2ccc(O)cc2O)S1 (stereo not drawn)
IC50 [14]: 13.9 µM

COc1ccccc1/C=C/C=N/Nc1nnc(SCc2cc(=O)c(O)co2)n1C
IC50 [29]: 20.5 µM | IC50 [30]: 7.5 µM

Nc1ccccc1C(=O)O [ANTHRANILIC ACID]
IC50 [31]: 4.72 µM | IC50 [32]: 5.15 µM

Clc1ccc(Cn2cc(COc3ccc(-c4nc5ccccc5[nH]4)cc3)nn2)cc1Cl
IC50 [27]: 9.42 µM

O=C(COC(=O)c1ccc(O)cc1O)Oc1ccc2oc(=O)ccc2c1
IC50 [33]: 8.96 µM

COc1ccccc1-n1c(SCC(=O)Nc2ccc(Br)cc2)nnc1-c1ccccc1
IC50 [28]: < 0.1 µM

CCN(CC)c1ccc(Nc2nc(-c3ccc(O)cc3O)cs2)cc1
IC50 [31]: 10.3 µM | IC50 [32]: 6.2 µM

COc1cc(C2CC(c3cc4ccccc4oc3=O)=NN2c2nc(-c3ccc(Br)cc3)cs2)ccc1OCc1ccccc1 (stereo not drawn)
IC50 [28]: < 0.1 µM

CC(=O)OC[C@H]1O[C@@H](Oc2ccc(O)cc2)[C@H](O)[C@@H](O)[C@@H]1O
inhibition (INH) [23]: 71.4%

CC1(C)CC(=O)C2=C(C1)Oc1c(oc(CCl)cc1=O)C2c1ccc(F)cc1 (stereo not drawn)
Ki [34]: 4 µM

CCOc1cc(/C=N/NC(=O)c2ccc(O)c(OC)c2)ccc1O
IC50 [17]: 1.58 µM

O=C(OCc1cc(=O)c(O)c[nH]1)[C@H](Cc1ccccc1)NCc1ccccc1
IC50 [35]: 8.97 µM | IC50 [36]: 1.95 µM

O=C1N=C(Nc2nc3ccccc3s2)S/C1=C\c1ccc(O)cc1O
IC50 [14]: 1.8 µM

Cc1cc(OCc2cn(Cc3ccc(F)cc3)nn2)c(C=C2C(=O)NC(=S)NC2=O)cc1Br
IC50 [10]: 24.6 µM | EC50 [37]: 39.2 µM

Cc1ccc(NC(=O)CCCN2CCN(C/C=C/c3ccccc3)CC2)c(C)c1
IC50 [28]: < 0.1 µM

COc1cccc2c1c(C(=O)C(=O)Nc1cc[nH]n1)cn2Cc1ccc(F)cc1
IC50 [1]: 224 µM

COc1ccc(-c2n[nH]c(S)n2)cc1
inhibition (INH) [38]: 55%

CCn1c2ccccc2c2cc(NC(=O)CSc3nc4ccccc4[nH]3)ccc21
Ki [39]: 1.64 µM
